# According to US7914817B2, “Treatment of inflammatory bowel disease” (Ed. Geistlich Soehne AG fuer Chemische Industrie, priority 2000, dated 2011):
# Key:
# [1] = test system: inflammatory response in intestinal mucosa in patients with active inflammatory bowel disease; assay: Oral taurolidine in patients with active IBD: inflammatory response in intestinal mucosa (Example 2); assay type: in vivo
# Source text: This example evaluates the beneficial effect of oral administration of taurolidine on amelioration of inflammatory response in intestinal mucosa in patients with active inflammatory bowel disease. This Example measures proinflammatory cytokines, angiogenic cytokines, reactive oxygen species and nitric oxide in the mucosal biopsy cultures in patients with IBD pre- and post-taurolidine administration. Local mucosal recruited PMN and mononuclear leukocyte-associated proinflammatory cytokine and angiogenic cytokine expression in patients with IBD are assessed pre- and post-taurolidine treatment.
# • 1) The specimens of standard intestinal mucosal biopsy are collected from patients with IBD on the day before taurolidine administration, and day 5 and day 10 after taurolidine administration, and incubated with completed culture medium for different time points. The supernatants from the biopsy cultures are harvested by centrifugation and stored at −80° C. for measurement of proinflammatory cytokines (TNF-α, IL-1β, IL-6), angiogenic cytokines (VEGF, TGF-β1), lipid peroxides (malonaldehyde), nitric oxide and peroxynitrite. • 2) The mononuclear leukocytes from the above specimens of mucosal biopsy are isolated using the technique of collagenase-digestion and density gradient sedimentation. […]
# [2] = metabolized to taurine, carbon dioxide and water; cited from earlier work
# [3] = test system: systemic inflammatory response in patients with active inflammatory bowel disease; assay: Oral taurolidine in patients with active IBD: systemic inflammatory response (Example 1); assay type: in vivo; conditions: pre- vs post-administration (day 2, 5, 10)
# Description: This experiment evaluates the beneficial effects of oral administration of taurolidine on attenuation of systemic inflammatory response in patients with active inflammatory bowel disease. This Example measures systemic proinflammatory and angiogenic cytokines, systemic reactive oxygen species and nitric oxide in patients with IBD pre- and post-taurolidine administration. Secondly, circulating PMN and monocytes from patients with IBD are assessed for their adhesion receptor expression, and their ability to release proinflammatory and angiogenic cytokines, as well as reactive oxygen species and nitric oxide following taurolidine treatment.
# • 1) Peripheral venous blood samples are collected from patients on the day before taurolidine administration, and day 2, day 5 and day 10 after taurolidine administration. Serum samples are harvested by centrifugation and stored at −80° C. for measurement of serum levels of endotoxin, LPS binding protein (LBP), and soluble CD14, serum proinflammatory cytokines (TNF-α, IL-1β, IL-6), serum angiogenic cytokines (VEGF, TGF-β1), serum lipid peroxides (malonaldehyde), nitric oxide and peroxynitrite. • 2) Receptor expression of CD11a, CD11b, CD18, and CD14 on PMN and monocytes in the whole blood samples are assessed on the day before taurolidine administration, and day 2, day 5, and day 10 after taurolidine administration. […]
# [4] = test system: gram positive and gram negative bacteria and fungi; conditions: cited from earlier work
# [5] = humans and animals, intravenous and intraperitoneal administration; cited from earlier work
structure (smiles),measurement,setting,value
"O=S1(=O)CCN(CN2CCS(=O)(=O)NC2)CN1 [Taurolidine, bis(1,1-dioxoperhydro-1,2,4-thiadiazin-4-yl)methane]",pathological changes in intestinal mucosa,[1]; day before vs day 5 and day 10,improves pathological changes in intestinal mucosa
same,"proinflammatory cytokines, angiogenic cytokines, reactive oxygen species, recruitment of PMN and mononuclear leukocytes in the intestinal mucosa",[1]; mucosal biopsy,downregulation
same,half life,[2],short half life
same,"systemic proinflammatory and angiogenic cytokine levels, PMN and monocyte adhesion receptor expression, lipid peroxides, nitric oxide, peroxynitrite",[3],ameliorates these phenomena
same,antimicrobial activity,[4],broad spectrum of antimicrobial activity
same,toxicity / side effects,[5],non-toxic to humans and animals and is free from side effects
